Laboratory results reported in PMC8286840, “Identifying SARS-CoV-2 antiviral compounds by screening for small molecule inhibitors of Nsp3 papain-like protease” (Biochemical Journal, 2021).
Structures can show the parent of a compound that is named as a salt. Where two headings read alike, the source gives them in different places.

How the values were obtained:
[1] = molecular target: T1, SARS-CoV-2 PLpro (nsp3 1564–1878) (Severe acute respiratory syndrome coronavirus 2, UniProt P0DTD1); experiment: biochemical; set-up: FRET-quenched peptide (Pro3) cleavage by PLpro, 10 min pre-incubation, slope over 20 min, normalised to no-compound control; conditions: read-out: % of control remaining
[2] = molecular target: T1, SARS-CoV-2 PLpro (nsp3 1564–1878); experiment: biochemical; set-up: FRET-quenched peptide (Pro3) cleavage by PLpro, 10 min pre-incubation, slope over 20 min, normalised to no-compound control; conditions: read-out: % of control remaining; remark: listed apart in the source

CCCCCCCC/C=C\CCCCCCCCOC[C@H](COP(=O)([O-])OCC[N+](C)(C)C)OC(C)=O [PAF C18:1]
remaining activity at 1.25 µM ([1]; Well no.=4453, low concentration screen): 99.9%
remaining activity at 3.75 µM ([2]; Well no.=4453, high concentration screen): 99.9%

COc1c2c(cc3c1OCO3)CCN(C)C2 [Hydrocotarnine HBr]
remaining activity at 1.25 µM ([1]; Well no.=3462, low concentration screen): 102%
remaining activity at 3.75 µM ([2]; Well no.=3462, high concentration screen): 103%

C=C1O[C@@](CO)(n2cnc3c(N)ncnc32)[C@H](O)[C@@H]1O [Decoyinine]
remaining activity at 1.25 µM ([1]; Well no.=3223, low concentration screen): 100%
remaining activity at 3.75 µM ([2]; Well no.=3223, high concentration screen): 104%

O=C(O)CNC(=O)C(=O)O [N-Oxalylglycine]
remaining activity at 1.25 µM ([1]; Well no.=5387, low concentration screen): 97.9%
remaining activity at 3.75 µM ([2]; Well no.=5387, high concentration screen): 92.4%

C=CC[N+]1([C@H]2C[C@H]3[C@@H]4CC[C@H]5C[C@H](O)[C@@H](N6CCOCC6)C[C@]5(C)[C@H]4CC[C@]3(C)[C@H]2OC(C)=O)CCCC1 [Rocuronium bromide]
remaining activity at 1.25 µM ([1]; Well no.=2019, low concentration screen): 103%
remaining activity at 3.75 µM ([2]; Well no.=2019, high concentration screen): 105%

CNC(=O)OCC[N+](C)(C)C [Methylcarbamylcholine chloride]
remaining activity at 1.25 µM ([1]; Well no.=1135, low concentration screen): 95.1%
remaining activity at 3.75 µM ([2]; Well no.=1135, high concentration screen): 96.5%

C[C@H](Nc1ccc(Cl)cc1)C(=O)O (racemic)
remaining activity at 1.25 µM ([1]; Well no.=230, low concentration screen): 95.2%
remaining activity at 3.75 µM ([2]; Well no.=230, high concentration screen): 97.1%

Nc1nonc1C(=Nc1ccc(F)c(Br)c1)NO [IDO-IN-1]
remaining activity at 1.25 µM ([1]; Well no.=8359, low concentration screen): 99.2%
remaining activity at 3.75 µM ([2]; Well no.=8359, high concentration screen): 99.9%

CN=c1nc(-c2ccccc2)n(-c2ccccc2)s1 [SCH-202676 hydrobromide]
remaining activity at 1.25 µM ([1]; Well no.=1314, low concentration screen): 98.7%
remaining activity at 3.75 µM ([2]; Well no.=1314, high concentration screen): 97.4%

COc1cc(C(=O)OCCCN2CCCN(CCCOC(=O)c3cc(OC)c(OC)c(OC)c3)CC2)cc(OC)c1OC [Dilazep hydrochloride]
remaining activity at 1.25 µM ([1]; Well no.=595, low concentration screen): 103%
remaining activity at 3.75 µM ([2]; Well no.=595, high concentration screen): 106%

Cc1nc2cc3nc(-c4cccs4)cnc3cc2n1C [AGL 2043]
remaining activity at 1.25 µM ([1]; Well no.=2309, low concentration screen): 104%
remaining activity at 3.75 µM ([2]; Well no.=2309, high concentration screen): 103%

C=CCc1cc(OC)c(O)c(C(=O)NCCO)c1 [Alibendol]
remaining activity at 1.25 µM ([1]; Well no.=5002, low concentration screen): 101%
remaining activity at 3.75 µM ([2]; Well no.=5002, high concentration screen): 94.9%

CN1C(=O)CC[C@H]1c1cccnc1 [(-)-Cotinine]
remaining activity at 1.25 µM ([1]; Well no.=228, low concentration screen): 97.9%
remaining activity at 1.25 µM ([1]; Well no.=3103, low concentration screen): 99.3%
remaining activity at 3.75 µM ([2]; Well no.=228, high concentration screen): 99.4%
remaining activity at 3.75 µM ([2]; Well no.=3103, high concentration screen): 101%

CCOC(=O)C1=Cc2ccc(C(F)(F)C(F)(F)F)cc2N=C(N)C1 [Toll-like receptor modulator]
remaining activity at 1.25 µM ([1]; Well no.=8077, low concentration screen): 108%
remaining activity at 3.75 µM ([2]; Well no.=8077, high concentration screen): 95.6%

CCN(CC)c1ncnc2c1ncn2[C@@H]1O[C@H](COP(=O)(O)OP(=O)(O)C(Br)(Br)P(=O)(O)O)[C@@H](O)[C@H]1O [ARL 67156 trisodium salt]
remaining activity at 1.25 µM [1]: 96%
remaining activity at 3.75 µM [2]: 96.3%

CC1=C(C)C(=O)C(C(CCCCCC(=O)O)c2ccccc2)=C(C)C1=O (stereo not shown) [Seratrodast]
remaining activity at 1.25 µM ([1]; Well no.=3857, low concentration screen): 98.1%
remaining activity at 1.25 µM ([1]; Well no.=7375, low concentration screen): 103%
remaining activity at 3.75 µM ([2]; Well no.=3857, high concentration screen): 102%
remaining activity at 3.75 µM ([2]; Well no.=7375, high concentration screen): 103%

CCCN(CCN1CCN(c2ccccc2OC)CC1)C1CCc2ncsc2C1 (stereo not shown) [ST-836 (hydrochloride)]
remaining activity at 1.25 µM ([1]; Well no.=8445, low concentration screen): 89.3%
remaining activity at 3.75 µM ([2]; Well no.=8445, high concentration screen): 92.2%

O=c1[nH]c2cc(C(F)(F)F)ccc2n1-c1cc(C(F)(F)F)ccc1O [NS-1619]
remaining activity at 1.25 µM ([1]; Well no.=846, low concentration screen): 104%
remaining activity at 3.75 µM ([2]; Well no.=846, high concentration screen): 102%

CCCCCCCCCCCCCCCC(=O)N[C@H](CN1CCOCC1)[C@H](O)c1ccccc1 (racemic) [DL-PPMP]
remaining activity at 1.25 µM ([1]; Well no.=4591, low concentration screen): 93.5%
remaining activity at 3.75 µM ([2]; Well no.=4591, high concentration screen): 100%

CC(C)(CN1C(=O)C(Cl)=C(Cl)C1=O)CN1C(=O)C(Cl)=C(Cl)C1=O [1,1'-(2,2-dimethylpropane-1,3-diyl)bis(3,4-dichloro-1H-pyrrole-2,5-dione)]
remaining activity at 1.25 µM ([1]; Well no.=5957, low concentration screen): 102%
remaining activity at 3.75 µM ([2]; Well no.=5957, high concentration screen): 105%

CCN1C[C@]2(C)CC[C@H](O)[C@]34C1[C@@H](C[C@H]23)[C@@]1(O)C[C@H](OC)[C@H]2C[C@@H]4[C@@H]1[C@H]2O [Karakoline]
remaining activity at 1.25 µM ([1]; Well no.=831, low concentration screen): 102%
remaining activity at 1.25 µM ([1]; Well no.=3157, low concentration screen): 111%
remaining activity at 3.75 µM ([2]; Well no.=831, high concentration screen): 99.5%
remaining activity at 3.75 µM ([2]; Well no.=3157, high concentration screen): 103%

COc1cc(Nc2c(C#N)cnc3cc(OCCCN4CCN(C)CC4)c(OC)cc23)c(Cl)cc1Cl [Bosutinib]
remaining activity at 1.25 µM ([1]; Well no.=2883, low concentration screen): 97.8%
remaining activity at 3.75 µM ([2]; Well no.=2883, high concentration screen): 100%

CCn1cnc2c(Nc3cccc(Cl)c3)nc(N[C@@H]3CCCC[C@@H]3N)nc21 [CGP-74514A hydrochloride]
remaining activity at 1.25 µM ([1]; Well no.=268, low concentration screen): 92.8%
remaining activity at 3.75 µM ([2]; Well no.=268, high concentration screen): 94.1%

Cc1cc(CN2CCN(c3c(Br)cnc4nc(-c5ccc(N6CCN(C)CC6)cc5)[nH]c34)CC2)no1 [CCT137690]
remaining activity at 1.25 µM ([1]; Well no.=5033, low concentration screen): 98%
remaining activity at 3.75 µM ([2]; Well no.=5033, high concentration screen): 99.3%

COc1cccc(Nc2c(C(N)=O)cnc3c(C)cc(S(=O)(=O)c4cccc(C(=O)N(C)C)c4)cc23)c1 [GSK256066]
remaining activity at 1.25 µM ([1]; Well no.=5300, low concentration screen): 95.5%
remaining activity at 3.75 µM ([2]; Well no.=5300, high concentration screen): 98.4%

N=C(N)NC(=N)NCCc1ccccc1 [Phenformin HCl]
remaining activity at 1.25 µM ([1]; Well no.=4908, low concentration screen): 100%
remaining activity at 3.75 µM ([2]; Well no.=4908, high concentration screen): 98.5%

COc1cccc2c1C(=O)c1c(O)c3c(c(O)c1C2=O)C[C@@](O)(C(=O)CO)C[C@@H]3O[C@H]1C[C@H](N)[C@H](O)[C@H](C)O1 [Doxorubicin.HCl]
remaining activity at 1.25 µM ([1]; Well no.=1710, low concentration screen): 98.5%
remaining activity at 1.25 µM ([1]; Well no.=3235, low concentration screen): 105%
remaining activity at 3.75 µM ([2]; Well no.=1710, high concentration screen): 100%
remaining activity at 3.75 µM ([2]; Well no.=3235, high concentration screen): 105%

COc1ccc(-n2nc(C(N)=O)c3c2C(=O)N(c2ccc(N4CCCCC4=O)cc2)CC3)cc1 [Apixaban]
remaining activity at 1.25 µM ([1]; Well no.=5331, low concentration screen): 99.7%
remaining activity at 3.75 µM ([2]; Well no.=5331, high concentration screen): 100%

CN(C)CCN1C(=O)c2cccc3cc(NC(N)=O)cc(c23)C1=O [UNBS5162]
remaining activity at 1.25 µM ([1]; Well no.=6953, low concentration screen): 98.3%
remaining activity at 1.25 µM ([1]; Well no.=8453, low concentration screen): 109%
remaining activity at 3.75 µM ([2]; Well no.=6953, high concentration screen): 98%
remaining activity at 3.75 µM ([2]; Well no.=8453, high concentration screen): 112%

COC(=O)[C@]1(O)C[C@@H]2O[C@@]1(C)n1c3ccccc3c3c4c(c5c6ccccc6n2c5c31)C(=O)NC4 [K-252a, Nocardiopsis sp.]
remaining activity at 1.25 µM ([1]; Well no.=2552, low concentration screen): 95.7%
remaining activity at 3.75 µM ([2]; Well no.=2552, high concentration screen): 95.2%

CCOc1ccn(-c2ccc(F)cc2)c(=O)c1C(=O)Nc1ccc(Oc2ccnc(N)c2Cl)c(F)c1 [BMS 777607]
remaining activity at 1.25 µM ([1]; Well no.=5297, low concentration screen): 94.1%
remaining activity at 3.75 µM ([2]; Well no.=5297, high concentration screen): 90.4%

O=C(NCCO[N+](=O)[O-])c1cccnc1 [Nicorandil]
remaining activity at 1.25 µM ([1]; Well no.=1812, low concentration screen): 99%
remaining activity at 3.75 µM ([2]; Well no.=1812, high concentration screen): 95.8%

COc1ccc(-c2coc3cc(O)cc(O)c3c2=O)cc1 [Biochanin A]
remaining activity at 1.25 µM ([1]; Well no.=3519, low concentration screen): 103%
remaining activity at 3.75 µM ([2]; Well no.=3519, high concentration screen): 101%
